Results taken from ChEMBL document CHEMBL1201862, “PubChem BioAssay data set” (2004).
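Interpolation was linear, between the two tested concentrations surrounding the appropriate level; five concentrations were tested over 48 hours in 96-well plates. Abbreviation: GI50, concentration required for 50% inhibition of growth.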 Active and inactive are the calls of the source. Cut-off read from the data, not from the text of the source: active = GI50 up to about 1.1 µM and inactive = higher.

Legend:
Assay in all cases: NCI-60 cell line screen, 48 h
786-0 = tested on: 786-0
A549 = tested on: A549
ACHN = tested on: ACHN
COLO 205 = tested on: COLO 205
EKVX = tested on: EKVX
HCT-116 = tested on: HCT-116
HOP-62 = tested on: HOP-62
HT-29 = tested on: HT-29
KM12 = tested on: KM12
LOX IMVI = tested on: LOX IMVI
MDA-MB-435 = tested on: MDA-MB-435
MOLT-4 = tested on: MOLT-4
NCI-H460 = tested on: NCI-H460
OVCAR-3 = tested on: OVCAR-3
OVCAR-4 = tested on: OVCAR-4
OVCAR-8 = tested on: OVCAR-8
PC-3 = tested on: PC-3
SF-268 = tested on: SF-268
T47D = tested on: T47D
UO-31 = tested on: UO-31

Row | SMILES | GI50 (786-0) | GI50 (A549) | GI50 (ACHN) | GI50 (COLO 205) | GI50 (EKVX) | GI50 (HCT-116) | GI50 (HOP-62) | GI50 (HT-29) | GI50 (KM12) | GI50 (LOX IMVI) | GI50 (MDA-MB-435) | GI50 (MOLT-4) | GI50 (NCI-H460) | GI50 (OVCAR-3) | GI50 (OVCAR-4) | GI50 (OVCAR-8) | GI50 (PC-3) | GI50 (SF-268) | GI50 (T47D) | GI50 (UO-31)
1 | COc1cccc2c1Cc1cc(-c3ccccc3)[n+](C)n1-2 | 7.24 µM (inactive) | 27.9 µM (inactive) | 19.2 µM (inactive) | 1.38 µM (inactive) | 1.5 µM (inactive) | 3.5 µM (inactive) | 42.3 µM (inactive) | 3.54 µM (inactive) | 11.5 µM (inactive) | 10 µM (inactive) | 11.8 µM (inactive) | 2.92 µM (inactive) | 14.5 µM (inactive) | 2.92 µM (inactive) | 3.19 µM (inactive) | 6.84 µM (inactive) | 11.4 µM (inactive) | 19.9 µM (inactive) | 3.4 µM (inactive) | 22.5 µM (inactive)
2 | COc1cc2c3cc1Oc1c(O)c(OC)cc4c1[C@H](Cc1ccc(cc1)Oc1cc(ccc1O)C[C@H]3N(C)CC2)N(C)CC4 | 6.52 µM (inactive) | 15.2 µM (inactive) | 19.4 µM (inactive) | 13.8 µM (inactive) | 16.7 µM (inactive) | 5.77 µM (inactive) | 16.4 µM (inactive) | 3.84 µM (inactive) | 9.02 µM (inactive) | 4.94 µM (inactive) | 10.7 µM (inactive) | 8.41 µM (inactive) | 8.99 µM (inactive) | 10.2 µM (inactive) | 16.9 µM (inactive) | 14.9 µM (inactive) | 8.51 µM (inactive) | 14.4 µM (inactive) | 17.9 µM (inactive) | 12.6 µM (inactive)
3 | Cc1cn2cc(-c3cccs3)nc2s1 | > 100 µM (inactive) | > 72.1 µM (inactive) | > 88.5 µM (inactive) | > 95.5 µM (inactive) | > 65.8 µM (inactive) | > 100 µM (inactive) | > 100 µM (inactive) | > 41.2 µM (inactive) | 43.9 µM (inactive) | > 45.9 µM (inactive) | > 100 µM (inactive) | 58.7 µM (inactive) | > 100 µM (inactive) | > 100 µM (inactive) | > 100 µM (inactive) | > 100 µM (inactive) | > 74.3 µM (inactive) | > 91.8 µM (inactive) | 25.4 µM (inactive) | 48.8 µM (inactive)
4 | CCN(CC)CCC(=O)c1ccc(C)cc1 | 17.7 µM (inactive) | > 100 µM (inactive) | 20.6 µM (inactive) | 16.9 µM (inactive) | 31.3 µM (inactive) | 16.3 µM (inactive) | > 100 µM (inactive) | 20.8 µM (inactive) | > 10 µM (inactive) | 29.9 µM (inactive) | 19 µM (inactive) | 18.5 µM (inactive) | > 100 µM (inactive) | 17.7 µM (inactive) | 23.5 µM (inactive) | 33.4 µM (inactive) | 54.7 µM (inactive) | > 100 µM (inactive) | 14.7 µM (inactive) | 23 µM (inactive)
5 | CC1(C)CC[C@]2(C(=O)O)[C@H](O)C[C@]3(C)C(=CC[C@@H]4[C@@]5(C)CC[C@H](OC6OC(C(=O)O)C(O)C(O)C6O)C(C)(C)[C@@H]5CC[C@]43C)[C@@H]2C1 (stereo not given in full) | > 100 µM (inactive) | > 100 µM (inactive) | 40.4 µM (inactive) | > 100 µM (inactive) | 78.3 µM (inactive) | > 100 µM (inactive) | > 100 µM (inactive) | > 100 µM (inactive) | 56.2 µM (inactive) | 64.3 µM (inactive) | > 100 µM (inactive) | > 100 µM (inactive) | > 100 µM (inactive) | > 100 µM (inactive) | 22.3 µM (inactive) | 65.6 µM (inactive) | > 100 µM (inactive) | 88.5 µM (inactive) | > 100 µM (inactive) | 17.4 µM (inactive)
6 | O=[N+]([O-])c1cccc(CSc2nc(O)c3nc[nH]c3n2)c1 | > 100 µM (inactive) | > 100 µM (inactive) | > 100 µM (inactive) | > 100 µM (inactive) | > 100 µM (inactive) | > 100 µM (inactive) | > 100 µM (inactive) | > 100 µM (inactive) | > 100 µM (inactive) | > 100 µM (inactive) | > 100 µM (inactive) | > 100 µM (inactive) | > 100 µM (inactive) | > 100 µM (inactive) | > 100 µM (inactive) | > 100 µM (inactive) | > 100 µM (inactive) | > 100 µM (inactive) | > 100 µM (inactive) | > 100 µM (inactive)
7 | O=C(O)c1ccccc1CC(Cc1ccccc1)C(=O)O (stereo not given) | > 100 µM (inactive) | > 100 µM (inactive) | > 100 µM (inactive) | > 100 µM (inactive) | > 100 µM (inactive) | > 100 µM (inactive) | > 100 µM (inactive) | > 100 µM (inactive) | > 100 µM (inactive) | > 100 µM (inactive) | > 100 µM (inactive) | > 100 µM (inactive) | > 100 µM (inactive) | > 100 µM (inactive) | > 100 µM (inactive) | > 100 µM (inactive) | > 100 µM (inactive) | 97.1 µM (inactive) | > 100 µM (inactive) | > 100 µM (inactive)
8 | COC(=O)c1sc2c(Cl)c(Cl)sc2c1Cl | 43.8 µM (inactive) | > 100 µM (inactive) | > 100 µM (inactive) | > 100 µM (inactive) | > 100 µM (inactive) | > 100 µM (inactive) | 30.7 µM (inactive) | > 100 µM (inactive) | > 100 µM (inactive) | > 100 µM (inactive) | > 100 µM (inactive) | > 100 µM (inactive) | > 100 µM (inactive) | 93.8 µM (inactive) | > 100 µM (inactive) | > 100 µM (inactive) | > 100 µM (inactive) | > 100 µM (inactive) | > 100 µM (inactive) | > 100 µM (inactive)
9 | COc1ccc(C2C(Cl)C(=O)N2NC(=O)c2ccc(N)cc2)cc1OC (stereo not given) | 2.43 µM (inactive) | 15.4 µM (inactive) | 13.7 µM (inactive) | 11.9 µM (inactive) | 16.5 µM (inactive) | 1.5 µM (inactive) | 15.9 µM (inactive) | 2.53 µM (inactive) | 1.52 µM (inactive) | 1.5 µM (inactive) | 5.87 µM (inactive) | 1.96 µM (inactive) | 20.1 µM (inactive) | 5.85 µM (inactive) | 5.69 µM (inactive) | 4.08 µM (inactive) | 12.9 µM (inactive) | 10.9 µM (inactive) | 11.1 µM (inactive) | 12.1 µM (inactive)
10 | CC(=O)Nc1n[n+]([O-])c2cc(C)ccc2[n+]1[O-] | 3.26 µM (inactive) | 2.44 µM (inactive) | 2.33 µM (inactive) | 2.37 µM (inactive) | 4.79 µM (inactive) | 2.08 µM (inactive) | 2.89 µM (inactive) | 2.52 µM (inactive) | 3.68 µM (inactive) | 2.4 µM (inactive) | 4.72 µM (inactive) | 1.49 µM (inactive) | 0.378 µM (active) | 2.4 µM (inactive) | 4.38 µM (inactive) | 2.96 µM (inactive) | 1.81 µM (inactive) | 3.57 µM (inactive) | 2.34 µM (inactive) | 3.38 µM (inactive)
11 | O=C(/C=C/c1ccc(O)c(O)c1)OCC(OC(=O)/C=C/c1ccc(O)c(O)c1)C(=O)O (stereo not given) | > 100 µM (inactive) | > 100 µM (inactive) | > 100 µM (inactive) | > 100 µM (inactive) | > 100 µM (inactive) | 81.7 µM (inactive) | 70.5 µM (inactive) | > 100 µM (inactive) | > 100 µM (inactive) | 92.5 µM (inactive) | > 100 µM (inactive) | 63.4 µM (inactive) | 86.9 µM (inactive) | 55.2 µM (inactive) | 90.2 µM (inactive) | > 100 µM (inactive) | > 100 µM (inactive) | > 100 µM (inactive) | > 100 µM (inactive) | 85.7 µM (inactive)
12 | N#Cc1cc(-c2nc3c(F)cccc3s2)ccc1N | > 100 µM (inactive) | > 100 µM (inactive) | > 100 µM (inactive) | 71.4 µM (inactive) | < 0.01 µM (active) | > 100 µM (inactive) | > 100 µM (inactive) | > 100 µM (inactive) | 65.3 µM (inactive) | > 100 µM (inactive) | 45.5 µM (inactive) | > 100 µM (inactive) | 20.5 µM (inactive) | 96.4 µM (inactive) | > 100 µM (inactive) | > 100 µM (inactive) | > 100 µM (inactive) | > 100 µM (inactive) | 0.912 µM (active) | > 100 µM (inactive)
13 | NC(CCC(=O)O)C(=O)N1CCN(c2nc(N3CCCC3)c3nc(Cl)c(NCc4ccccc4)nc3n2)CC1 (stereo not given) | 12.1 µM (inactive) | 12.5 µM (inactive) | 15.1 µM (inactive) | 10.7 µM (inactive) | 13.8 µM (inactive) | 13.9 µM (inactive) | 13.2 µM (inactive) | 9.95 µM (inactive) | 16.1 µM (inactive) | 14.6 µM (inactive) | 9.48 µM (inactive) | 7.53 µM (inactive) | 10.3 µM (inactive) | 8.71 µM (inactive) | 10.5 µM (inactive) | 15.6 µM (inactive) | 13.3 µM (inactive) | 13.1 µM (inactive) | 6.64 µM (inactive) | 9.29 µM (inactive)
14 | COC(=O)C(CNC(=O)/C=C/c1ccc(OC)c(OC)c1)NC(=O)/C=C/c1ccc(OC)c(OC)c1 (stereo not given) | > 100 µM (inactive) | > 100 µM (inactive) | > 100 µM (inactive) | > 100 µM (inactive) | > 100 µM (inactive) | > 100 µM (inactive) | > 100 µM (inactive) | > 100 µM (inactive) | > 100 µM (inactive) | > 100 µM (inactive) | > 100 µM (inactive) | 77.1 µM (inactive) | 45.2 µM (inactive) | 66.5 µM (inactive) | > 100 µM (inactive) | > 100 µM (inactive) | > 100 µM (inactive) | > 100 µM (inactive) | 75.7 µM (inactive) | > 100 µM (inactive)
